From patent US6472348B1, “Pyridone derivatives and herbicides” (Kumiai Chemical Industry Co., Ltd., priority 1996, dated 2002)

tested on: Digitaria ciliaris (Di); assay: Test Example 2: herbicidal effects by upland field soil treatment; assay type: in vivo; details: 100 g of the active ingredient per 10 ares, evaluated on the 21st day after application;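 also: grade of growth control; 5 = at least 90%; 4 = 70 to 90%; 3 = 50 to 70%; 2 = 30 to 50%; 1 = 10 to 30%; 0 = under 10%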
From the text: (§1) (Test on Herbicidal Effects by Upland Field Soil Treatment)

SMILES	Herbicidal effects Di
C=C(C)CN1C(=O)COc2cc(F)c(-c3ccc(C(F)(F)F)n(C)c3=O)cc21 [Compound 2-11]	5
COCCOc1cc(-c2ccc(C(F)(F)F)n(C)c2=O)c(Cl)cc1Cl [Compound 1-211]	5
Cn1c(C(F)(F)F)ccc(-c2c(Cl)cc(Cl)c3oc(CBr)cc23)c1=O [Compound 4-16]	5

tested on: barnyardgrass (Ec); assay: as above; assay type: in vivo; details: 100 g of the active ingredient per 10 ares, evaluated on the 21st day after application
From the text: as §1

SMILES	Herbicidal effects Ec
C=C(C)CN1C(=O)COc2cc(F)c(-c3ccc(C(F)(F)F)n(C)c3=O)cc21 [Compound 2-11]	5
COCCOc1cc(-c2ccc(C(F)(F)F)n(C)c2=O)c(Cl)cc1Cl [Compound 1-211]	5
Cn1c(C(F)(F)F)ccc(-c2c(Cl)cc(Cl)c3oc(CBr)cc23)c1=O [Compound 4-16]	5

tested on: rice flatsedge (Ci); assay: as above; assay type: in vivo; details: 100 g of the active ingredient per 10 ares, evaluated on the 21st day after application
From the text: as §1

SMILES	Herbicidal effects Ci
C=C(C)CN1C(=O)COc2cc(F)c(-c3ccc(C(F)(F)F)n(C)c3=O)cc21 [Compound 2-11]	5
COCCOc1cc(-c2ccc(C(F)(F)F)n(C)c2=O)c(Cl)cc1Cl [Compound 1-211]	5
Cn1c(C(F)(F)F)ccc(-c2c(Cl)cc(Cl)c3oc(CBr)cc23)c1=O [Compound 4-16]	5

tested on: pale smartweed (Po); assay: as above; assay type: in vivo; details: 100 g of the active ingredient per 10 ares, evaluated on the 21st day after application
From the text: as §1

SMILES	Herbicidal effects Po
C=C(C)CN1C(=O)COc2cc(F)c(-c3ccc(C(F)(F)F)n(C)c3=O)cc21 [Compound 2-11]	5
COCCOc1cc(-c2ccc(C(F)(F)F)n(C)c2=O)c(Cl)cc1Cl [Compound 1-211]	5
Cn1c(C(F)(F)F)ccc(-c2c(Cl)cc(Cl)c3oc(CBr)cc23)c1=O [Compound 4-16]	5

tested on: common lambsquarters (Ch); assay: as above; assay type: in vivo; details: 100 g of the active ingredient per 10 ares, evaluated on the 21st day after application
From the text: as §1

SMILES	Herbicidal effects Ch
C=C(C)CN1C(=O)COc2cc(F)c(-c3ccc(C(F)(F)F)n(C)c3=O)cc21 [Compound 2-11]	5
COCCOc1cc(-c2ccc(C(F)(F)F)n(C)c2=O)c(Cl)cc1Cl [Compound 1-211]	5
Cn1c(C(F)(F)F)ccc(-c2c(Cl)cc(Cl)c3oc(CBr)cc23)c1=O [Compound 4-16]	5

tested on: slender amaranth (Am); assay: as above; assay type: in vivo; details: 100 g of the active ingredient per 10 ares, evaluated on the 21st day after application
From the text: as §1

SMILES	Herbicidal effects Am
C=C(C)CN1C(=O)COc2cc(F)c(-c3ccc(C(F)(F)F)n(C)c3=O)cc21 [Compound 2-11]	5
COCCOc1cc(-c2ccc(C(F)(F)F)n(C)c2=O)c(Cl)cc1Cl [Compound 1-211]	5
Cn1c(C(F)(F)F)ccc(-c2c(Cl)cc(Cl)c3oc(CBr)cc23)c1=O [Compound 4-16]	5

tested on: barnyardgrass (Ec); assay: Test Example 1: herbicidal effects by paddy field soil treatment; assay type: in vivo; details: 100 g of the active ingredient per 10 ares, 21st day after the application, index 0-5 of Table 47;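 also: grade of growth control; 5 = at least 90%; 4 = 70 to 90%; 3 = 50 to 70%; 2 = 30 to 50%; 1 = 10 to 30%; 0 = under 10%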
In short: (§2)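 Scoring of herbicidal effect came 21 days after application of 100 g active ingredient per 10 ares to flooded (3 cm) paddy-soil pots sown with barnyardgrass, monochoria and bulrush, kept in a greenhouse.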

SMILES	Herbicidal effects Ec
C=C(C)CN1C(=O)COc2cc(F)c(-c3ccc(C(F)(F)F)n(C)c3=O)cc21 [Compound 2-11]	5
COCCOc1cc(-c2ccc(C(F)(F)F)n(C)c2=O)c(Cl)cc1Cl [Compound 1-211]	5
Cn1c(C(F)(F)F)ccc(-c2c(Cl)cc(Cl)c3oc(CBr)cc23)c1=O [Compound 4-16]	5

tested on: monochoria (Mo); assay: as above; assay type: in vivo; details: 100 g of the active ingredient per 10 ares, 21st day after the application, index 0-5 of Table 47;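 also: grade of growth control; 5 = at least 90%; 4 = 70 to 90%; 3 = 50 to 70%; 2 = 30 to 50%; 1 = 10 to 30%; 0 = under 10%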
In short: as §2

SMILES	Herbicidal effects Mo
C=C(C)CN1C(=O)COc2cc(F)c(-c3ccc(C(F)(F)F)n(C)c3=O)cc21 [Compound 2-11]	5
COCCOc1cc(-c2ccc(C(F)(F)F)n(C)c2=O)c(Cl)cc1Cl [Compound 1-211]	5
Cn1c(C(F)(F)F)ccc(-c2c(Cl)cc(Cl)c3oc(CBr)cc23)c1=O [Compound 4-16]	5

tested on: bulrush (Sc); assay: as above; assay type: in vivo; details: 100 g of the active ingredient per 10 ares, 21st day after the application, index 0-5 of Table 47;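 also: grade of growth control; 5 = at least 90%; 4 = 70 to 90%; 3 = 50 to 70%; 2 = 30 to 50%; 1 = 10 to 30%; 0 = under 10%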
In short: as §2

SMILES	Herbicidal effects Sc
C=C(C)CN1C(=O)COc2cc(F)c(-c3ccc(C(F)(F)F)n(C)c3=O)cc21 [Compound 2-11]	5
COCCOc1cc(-c2ccc(C(F)(F)F)n(C)c2=O)c(Cl)cc1Cl [Compound 1-211]	5
Cn1c(C(F)(F)F)ccc(-c2c(Cl)cc(Cl)c3oc(CBr)cc23)c1=O [Compound 4-16]	5

tested on: barnyardgrass (Ec); assay: Test Example 3: herbicidal effects by upland field foliage treatment; assay type: in vivo; parameters: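 grade of growth control; 5 = at least 90%; 4 = 70 to 90%; 3 = 50 to 70%; 2 = 30 to 50%; 1 = 10 to 30%; 0 = under 10%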; details: 100 g active ingredient per 10 ares, evaluated 14th day after treatment
In short: (§3)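 Weeds were sown in sand-filled pots (surface area: 120 cm^2), covered with soil and grown in a greenhouse for 2 weeks before foliar treatment. Plants then stayed in the greenhouse, and herbicidal effect was scored against graded standards on the 14th day after treatment.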

SMILES	Herbicidal effects Ec
C=C(C)CN1C(=O)COc2cc(F)c(-c3ccc(C(F)(F)F)n(C)c3=O)cc21 [Compound 2-11]	5
COCCOc1cc(-c2ccc(C(F)(F)F)n(C)c2=O)c(Cl)cc1Cl [Compound 1-211]	4
Cn1c(C(F)(F)F)ccc(-c2c(Cl)cc(Cl)c3oc(CBr)cc23)c1=O [Compound 4-16]	5

tested on: rice flatsedge (Ci); assay: as above; assay type: in vivo; parameters: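 grade of growth control; 5 = at least 90%; 4 = 70 to 90%; 3 = 50 to 70%; 2 = 30 to 50%; 1 = 10 to 30%; 0 = under 10%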; details: 100 g active ingredient per 10 ares, evaluated 14th day after treatment
In short: as §3

SMILES	Herbicidal effects Ci
C=C(C)CN1C(=O)COc2cc(F)c(-c3ccc(C(F)(F)F)n(C)c3=O)cc21 [Compound 2-11]	5
COCCOc1cc(-c2ccc(C(F)(F)F)n(C)c2=O)c(Cl)cc1Cl [Compound 1-211]	5
Cn1c(C(F)(F)F)ccc(-c2c(Cl)cc(Cl)c3oc(CBr)cc23)c1=O [Compound 4-16]	5

tested on: pale smartweed (Po); assay: as above; assay type: in vivo; parameters: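 grade of growth control; 5 = at least 90%; 4 = 70 to 90%; 3 = 50 to 70%; 2 = 30 to 50%; 1 = 10 to 30%; 0 = under 10%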; details: 100 g active ingredient per 10 ares, evaluated 14th day after treatment
In short: as §3

SMILES	Herbicidal effects Po
C=C(C)CN1C(=O)COc2cc(F)c(-c3ccc(C(F)(F)F)n(C)c3=O)cc21 [Compound 2-11]	5
COCCOc1cc(-c2ccc(C(F)(F)F)n(C)c2=O)c(Cl)cc1Cl [Compound 1-211]	5
Cn1c(C(F)(F)F)ccc(-c2c(Cl)cc(Cl)c3oc(CBr)cc23)c1=O [Compound 4-16]	5

tested on: common lambsquarters (Ch); assay: as above; assay type: in vivo; parameters: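 grade of growth control; 5 = at least 90%; 4 = 70 to 90%; 3 = 50 to 70%; 2 = 30 to 50%; 1 = 10 to 30%; 0 = under 10%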; details: 100 g active ingredient per 10 ares, evaluated 14th day after treatment
In short: as §3

SMILES	Herbicidal effects Ch
C=C(C)CN1C(=O)COc2cc(F)c(-c3ccc(C(F)(F)F)n(C)c3=O)cc21 [Compound 2-11]	5
COCCOc1cc(-c2ccc(C(F)(F)F)n(C)c2=O)c(Cl)cc1Cl [Compound 1-211]	5
Cn1c(C(F)(F)F)ccc(-c2c(Cl)cc(Cl)c3oc(CBr)cc23)c1=O [Compound 4-16]	5

tested on: Diaitaria ciliaris (Di); assay: as above; assay type: in vivo; parameters: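 grade of growth control; 5 = at least 90%; 4 = 70 to 90%; 3 = 50 to 70%; 2 = 30 to 50%; 1 = 10 to 30%; 0 = under 10%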; details: 100 g active ingredient per 10 ares, evaluated 14th day after treatment
In short: as §3

SMILES	Herbicidal effects Di
C=C(C)CN1C(=O)COc2cc(F)c(-c3ccc(C(F)(F)F)n(C)c3=O)cc21 [Compound 2-11]	5
COCCOc1cc(-c2ccc(C(F)(F)F)n(C)c2=O)c(Cl)cc1Cl [Compound 1-211]	5
Cn1c(C(F)(F)F)ccc(-c2c(Cl)cc(Cl)c3oc(CBr)cc23)c1=O [Compound 4-16]	5

tested on: slender amaranth (Am); assay: as above; assay type: in vivo; parameters: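 grade of growth control; 5 = at least 90%; 4 = 70 to 90%; 3 = 50 to 70%; 2 = 30 to 50%; 1 = 10 to 30%; 0 = under 10%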; details: 100 g active ingredient per 10 ares, evaluated 14th day after treatment
In short: as §3

SMILES	Herbicidal effects Am
C=C(C)CN1C(=O)COc2cc(F)c(-c3ccc(C(F)(F)F)n(C)c3=O)cc21 [Compound 2-11]	5
COCCOc1cc(-c2ccc(C(F)(F)F)n(C)c2=O)c(Cl)cc1Cl [Compound 1-211]	5
Cn1c(C(F)(F)F)ccc(-c2c(Cl)cc(Cl)c3oc(CBr)cc23)c1=O [Compound 4-16]	5
